Results: ChEMBL document CHEMBL1151847, “In vitro skin diffusion study of pure forskolin versus a forskolin-containing Plectranthus barbatus root extract” (J Nat Prod, 2009)

Assays:
Zone of skin [1] = assay: Permeability across human skin assessed as drug content per gram of wet tissue applied topically after 24 hrs by LC-MS analysis; format: ADME, tissue-based
Zone of skin [2] = assay: Permeability across human skin assessed as cumulative drug content applied topically after 24 hrs by LC-MS analysis; format: ADME, tissue-based
Zone of skin [3] = assay: Permeability across human skin assessed as permeation lag time applied topically after 24 hrs by LC-MS analysis; format: ADME, tissue-based
Zone of skin [4] = assay: Permeability across guinea pig skin assessed as drug content per gram of wet tissue applied topically after 24 hrs by LC-MS analysis; format: ADME, tissue-based, Cavia porcellus; details: topical_or_ocular
Zone of skin [5] = assay: Permeability across guinea pig skin assessed as cumulative drug content applied topically after 24 hrs by LC-MS analysis; format: ADME, tissue-based, Cavia porcellus; details: topical_or_ocular
Zone of skin [6] = assay: Permeability across guinea pig skin assessed as permeation lag time applied topically after 24 hrs by LC-MS analysis; format: ADME, tissue-based, Cavia porcellus; details: topical_or_ocular
[7] = Ratio of permeability flux across guinea pig skin to permeability flux across human skin; format: ADME, tissue-based, Zone of skin

Drug uptake (Zone of skin [1]): 20 µmol | Drug uptake (Zone of skin [2]): 3.8 nmol | Activity (Zone of skin [3]): 1.5 h | Drug uptake (Zone of skin [4]): 5.8 µmol | Drug uptake (Zone of skin [5]): 75.6 nmol | Activity (Zone of skin [6]): 2.8 h | Ratio [7]: 19
Compound: C=C[C@@]1(C)CC(=O)[C@]2(O)[C@@]3(C)[C@@H](O)CCC(C)(C)[C@@H]3[C@H](O)[C@H](OC(C)=O)[C@@]2(C)O1 [COLFORSIN]
